Inconclusive results are not listed. Calls of active or inactive are those of the source.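 Rule for the calls: active = fitted curve falls past -35% activity change at a concentration under twice the top valid dose, in every test run; inconclusive = test runs disagree, some active and some inactive; inactive = all test runs inactive, including signal rising instead of falling.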
test: IL-1beta-induced NF-kB reporter signal decrease – LMP1 TES2-inducible cells, luciferase, dry powder, selectivity assay for EBV LMP1 NF-kB inhibitor project, dose response (AID 624360); conditions: HEK293, 16 h

| Compound | AC35 [nM] |
| --- | --- |
| CC12CCC3C(CC=C4CC(O)CCC43CO)C1CCC2OC(=O)c1ccccc1 (centres undefined) | 3880 |

same assay, conditions: HEK293 IL-1beta-induced NF-kB luciferase reporter (LMP1 TES2-inducible cell line), 16 h

| Compound | AC35 [nM] |
| --- | --- |
| C[C@H](CO)N1C[C@H](C)[C@@H](CN(C)CC2CC2)OCCCC[C@H](C)Oc2ccc(NC(=O)Nc3cccc4ccccc34)cc2C1=O | 1130 |
| C/C(=N\NC(=S)N1CCCCC1)c1ccccn1 | 168 |
| Nc1ccn([C@@H]2O[C@H](CO)[C@@H](O)C2O)c(=O)n1 (some centres undefined) | 15800 |
| CCN1CCN(C(c2cccnc2)c2cc(Cl)c3cccnc3c2O)CC1 (centres undefined) | 5660 |
| O=C1/C(=C/c2ccncc2)SC(=S)N1Cc1ccccc1 | 91500 |
| Cc1ccc(S(=O)(=O)Nc2ccc3c(c2)C(=O)N([C@@H](C)CO)C[C@H](C)[C@@H](CN(C)C(=O)CCC(F)(F)F)OCCCC[C@H](C)O3)cc1 | 488 |
| O=c1[nH]c(Nc2nc3ccccc3o2)nc2c1CCCC2 | 107000 |
| Cc1cc(NC(=O)c2ccc3c(c2)OCCO3)no1 | 111000 |
| S=C(NCc1ccccn1)N/N=C/c1ccccn1 | 1980 |
| COc1ccc2[nH]c(C(=O)N/N=C/c3ccc(O)cc3O)cc2c1 | 6480 |
| COc1ccc2nc(Nc3nc(C)c(CCC(C)C)c(=O)[nH]3)nc(C)c2c1 | 2720 |
| CCC(Sc1nnc2c3ccccc3n(Cc3ccc(Br)cc3)c2n1)C(=O)NCCCN1CCOCC1 (centres undefined) | 2710 |
| C/C(=N\NC(=S)N1CC2CCC(CC2)C1)c1ccccn1 | 913 |
| CC1CN(C(=O)CSc2nnc3c4ccccc4n(Cc4cccc(Cl)c4)c3n2)CCN1C(=O)c1ccccc1F (centres undefined) | 9280 |
| C[C@H](CO)N1C[C@H](C)[C@H](CN(C)C(=O)Nc2ccc(C(F)(F)F)cc2)OCCCC[C@H](C)Oc2ccc(NC(=O)Nc3ccc(F)cc3)cc2C1=O | 7850 |
| CCCSc1nnc2c3ccccc3n(Cc3ccccc3)c2n1 | 2610 |

| Compound | AC35 [nM] |
| --- | --- |
| C[C@H](CO)N1C[C@H](C)[C@@H](CN(C)Cc2ccc(-c3ccccc3)cc2)Oc2ccc(NC(=O)Nc3cccc4ccccc34)cc2CC1=O | 4640 |
| C/C(=N\NC(=S)N1CCCCC1)c1cccc(C)n1 | 343 |
| COc1ccccc1[C@]1(C)ON(c2ccccc2C(F)(F)F)C1=O | 8170 |
| C/C=C/C/C=C/CCC(=O)[C@H]1O[C@H]1C(N)=O | 7670 |
| S=C(N/N=C(\c1ccccc1)c1ccccn1)N(Cc1ccccn1)Cc1ccccn1 | 769 |
| C/C(=N\NC(=S)N1CCC1)c1ccccn1 | 287 |
| C[C@@H]1CCCCO[C@H](CN(C)C(=O)NC2CCCCC2)[C@H](C)CN([C@@H](C)CO)C(=O)c2cc(NC(=O)C3CCCCC3)ccc2O1 | 11700 |
| C/C(=N\NC(=S)Nc1ccccc1)c1ccccn1 | 522 |
| C[C@@H]1CN([C@@H](C)CO)C(=O)c2cc(NC(=O)Nc3ccc4c(c3)OCO4)ccc2O[C@H]1CN(C)CC1CCCCC1 | 2700 |
| Cc1ccc(NC(=O)C2CCN(S(=O)(=O)c3ccc4c(c3)NC(=O)C(C)S4)CC2)cc1Cl (centres undefined) | 3670 |
| Fc1ccc2c(c1)c1nnc(SCCN3CCOCC3)nc1n2Cc1ccccc1 | 4490 |
| C/C(=N\NC(=S)N1CCCC1)c1ccccn1 | 156 |
| C/C(=N\NC(=S)N1CC2CCC(CC2)C1)c1cnccn1 | 86.2 |
| CC(C)=CCN(C(=O)C#Cc1ccccc1)[C@H](CO)c1ccccc1 | 2500 |
| C[C@@H]1CN([C@@H](C)CO)C(=O)c2cccc(NC(=O)Nc3cccc4ccccc34)c2O[C@H]1CN(C)C(=O)Nc1ccc(C(F)(F)F)cc1 | 11400 |
| C/C(=N\NC(=S)N1CCCCCC1)c1ccccn1 | 213 |

same assay, conditions: HEK293 IL-1beta-induced NF-kB luciferase reporter (LMP1 TES2-inducible cell line), 16 h; at 15 µM (top of the series)

| Compound | activity change, negative = inhibition |
| --- | --- |
| C=C1C[C@]23C[C@@]1(O)CC[C@H]2[C@@]12C=C[C@H](O)[C@@](C)(C(=O)O1)[C@H]2[C@@H]3C(=O)O | 13.6% (inactive) |

same assay, conditions: HEK293 IL-1beta-induced NF-kB luciferase reporter (LMP1 TES2-inducible cell line), 16 h; at 26 µM (top of the series)

| Compound | activity change, negative = inhibition |
| --- | --- |
| C[C@@H]1CCCCO[C@H](CN(C)CC2CCCCC2)[C@H](C)CN([C@@H](C)CO)C(=O)c2cc(NC(=O)NC3CCCCC3)ccc2O1 | -0.708% (inactive) |
| Cc1c(NC(=O)c2cccc(NC(=O)COc3ccccc3C#N)c2)c(=O)n(-c2ccccc2)n1C | 14.8% (inactive) |
| COc1ccc(C(=O)Nc2ccc3[nH]ccc3c2)cc1 | 20.3% (inactive) |
| c1ccc(-c2cn3c4c(sc3n2)CCCC4)cc1 | 8.88% (inactive) |
| C=CCN1Cc2ccccc2[C@@H]2OC(c3ccc(OCCCO)cc3)=N[C@]2(CCC(=O)OC(C)(C)C)C1=O | 37.8% (inactive) |
| CCc1ccc(/C=C2\SC(=S)N(CCCC(=O)Nc3ccccn3)C2=O)cc1 | 40.6% (inactive) |
| C[C@@H]1CCCCO[C@H](CN(C)S(=O)(=O)c2ccccc2)[C@@H](C)CN([C@@H](C)CO)C(=O)c2cc(N(C)C)ccc2O1 | 9.13% (inactive) |
| C[C@@H]1CN([C@@H](C)CO)C(=O)c2cc(NC(=O)Nc3ccc(C(F)(F)F)cc3)ccc2O[C@@H](C)CCCCO[C@H]1CN(C)Cc1ccc(C(F)(F)F)cc1 | 12.7% (inactive) |
| COc1ccc(-c2cc3nc4n(c(=O)c3s2)CCC4)cc1 | 19.5% (inactive) |
| CCc1sc(C(=O)Nc2ncccc2O)cc1C | 6.99% (inactive) |

Reference: PubChem BioAssay AID624360 (Broad Institute, 2012)
